Results taken from ChEMBL document CHEMBL1201862, “PubChem BioAssay data set” (2004).
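Step 1: Grow cells in 96-well plates. Step 2: Expose to compound for 48 hours at 5 concentrations. Step 3: Interpolate endpoints linearly; if unreached, use highest concentration. GI50: concentration for 50% inhibition of growth.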 Activity calls are given as the source filed them. Rule as the data show it: active = GI50 up to about 1.1 µM and inactive = higher.

Tests used:
Assay in all cases: DTP human tumour cell line panel, 48 h
[1] = test system: KM12
[2] = test system: PC-3
[3] = test system: UO-31
[4] = test system: SNB-75
[5] = test system: Hs-578T
[6] = test system: TK-10
[7] = test system: IGROV-1
[8] = test system: EKVX
[9] = test system: SNB-19
[10] = test system: SF-268
[11] = test system: DU-145
[12] = test system: OVCAR-5
[13] = test system: NCI-H460
[14] = test system: M14
[15] = test system: SK-MEL-28
[16] = test system: A549
[17] = test system: 786-0
[18] = test system: HCT-116
[19] = test system: MDA-MB-435
[20] = test system: NCI-H23
[21] = test system: OVCAR-8
[22] = test system: SK-MEL-2
[23] = test system: HOP-62
[24] = test system: Malme-3M
[25] = test system: HOP-92
[26] = test system: MCF7
[27] = test system: NCI/ADR-RES
[28] = test system: COLO 205
[29] = test system: CAKI-1
[30] = test system: SF-539
[31] = test system: SK-OV-3
[32] = test system: HCC 2998
[33] = test system: SN12C
[34] = test system: A498
[35] = test system: SR
[36] = test system: K562
[37] = test system: T47D
[38] = test system: OVCAR-3
[39] = test system: SF-295
[40] = test system: HCT-15
[41] = test system: ACHN
[42] = test system: SW-620
[43] = test system: U-251
[44] = test system: BT-549
[45] = test system: MOLT-4
[46] = test system: NCI-H226
[47] = test system: HT-29
[48] = test system: MDA-N
[49] = test system: RPMI-8226
[50] = test system: OVCAR-4
[51] = test system: CCRF-CEM
[52] = test system: LOX IMVI
[53] = test system: SK-MEL-5
[54] = test system: NCI-H522
[55] = test system: RXF 393
[56] = test system: UACC-257
[57] = test system: HL-60
[58] = test system: MDA-MB-231
[59] = test system: UACC-62

CC(=O)NC1C(OCc2ccccc2)OC(CO)C(O)C1OCC(=O)N1CCCC1C(=O)N[C@@H](CCC(=O)NCCCCNc1c2ccccc2nc2cccc([N+](=O)[O-])c12)C(N)=O (some centres undefined)
GI50 [1]: 31.3 µM (inactive)
GI50 [2]: 18.7 µM (inactive)
GI50 [3]: 45.2 µM (inactive)
GI50 [4]: 21.4 µM (inactive)
GI50 [5]: 21.1 µM (inactive)
GI50 [6]: 73.8 µM (inactive)
GI50 [7]: 14.8 µM (inactive)
GI50 [8]: 43.3 µM (inactive)
GI50 [9]: 17.7 µM (inactive)
GI50 [10]: 31.6 µM (inactive)
GI50 [11]: 31.8 µM (inactive)
GI50 [12]: 25.8 µM (inactive)
GI50 [13]: 21 µM (inactive)
GI50 [14]: 16 µM (inactive)
GI50 [15]: 81.8 µM (inactive)
GI50 [16]: 16 µM (inactive)
GI50 [17]: 46.1 µM (inactive)
GI50 [18]: 22.9 µM (inactive)
GI50 [19]: 18 µM (inactive)
GI50 [20]: 15.7 µM (inactive)
GI50 [21]: 31 µM (inactive)
GI50 [22]: 15.4 µM (inactive)
GI50 [23]: 37.9 µM (inactive)
GI50 [24]: 33.3 µM (inactive)
GI50 [25]: 9.33 µM (inactive)
GI50 [26]: 9.1 µM (inactive)
GI50 [27]: > 100 µM (inactive)
GI50 [28]: 18.6 µM (inactive)
GI50 [29]: > 100 µM (inactive)
GI50 [30]: 77.4 µM (inactive)
GI50 [31]: 99.1 µM (inactive)
GI50 [32]: 16.1 µM (inactive)
GI50 [33]: 23.7 µM (inactive)
GI50 [34]: 35.7 µM (inactive)
GI50 [35]: 20.1 µM (inactive)
GI50 [36]: 26.4 µM (inactive)
GI50 [37]: 27.4 µM (inactive)
GI50 [38]: 21.6 µM (inactive)
GI50 [39]: 53.8 µM (inactive)
GI50 [40]: 42.8 µM
GI50 [41]: 26.6 µM (inactive)
GI50 [42]: 11.5 µM (inactive)
GI50 [43]: 18.9 µM (inactive)
GI50 [44]: 17.9 µM (inactive)
GI50 [45]: 32.5 µM (inactive)
GI50 [46]: 74 µM (inactive)
GI50 [47]: 16.7 µM (inactive)
GI50 [48]: 14.8 µM (inactive)
GI50 [49]: 2.64 µM (inactive)
GI50 [50]: 40.7 µM (inactive)

C=CCn1c(=O)c(-c2ccccc2)c(O)c2ccccc21
GI50 [1]: > 100 µM (inactive)
GI50 [2]: > 100 µM (inactive)
GI50 [3]: > 100 µM (inactive)
GI50 [4]: 94 µM (inactive)
GI50 [5]: > 100 µM (inactive)
GI50 [6]: > 100 µM (inactive)
GI50 [7]: > 100 µM (inactive)
GI50 [51]: > 100 µM (inactive)
GI50 [8]: > 100 µM (inactive)
GI50 [9]: > 100 µM (inactive)
GI50 [10]: > 100 µM (inactive)
GI50 [11]: > 100 µM (inactive)
GI50 [12]: > 100 µM (inactive)
GI50 [13]: > 100 µM (inactive)
GI50 [15]: > 100 µM (inactive)
GI50 [16]: > 100 µM (inactive)
GI50 [17]: > 100 µM (inactive)
GI50 [18]: > 100 µM (inactive)
GI50 [19]: > 100 µM (inactive)
GI50 [20]: > 100 µM (inactive)
GI50 [21]: > 100 µM (inactive)
GI50 [52]: > 100 µM (inactive)
GI50 [23]: > 100 µM (inactive)
GI50 [53]: > 100 µM (inactive)
GI50 [24]: > 100 µM (inactive)
GI50 [25]: > 100 µM (inactive)
GI50 [54]: > 100 µM (inactive)
GI50 [26]: > 100 µM (inactive)
GI50 [27]: > 100 µM (inactive)
GI50 [28]: > 100 µM (inactive)
GI50 [55]: > 100 µM (inactive)
GI50 [29]: > 100 µM (inactive)
GI50 [30]: > 100 µM (inactive)
GI50 [32]: > 100 µM (inactive)
GI50 [33]: > 100 µM (inactive)
GI50 [34]: > 100 µM (inactive)
GI50 [35]: > 100 µM (inactive)
GI50 [36]: > 100 µM (inactive)
GI50 [38]: > 100 µM (inactive)
GI50 [39]: > 100 µM (inactive)
GI50 [40]: > 100 µM
GI50 [41]: > 100 µM (inactive)
GI50 [56]: > 100 µM (inactive)
GI50 [42]: > 100 µM (inactive)
GI50 [43]: > 100 µM (inactive)
GI50 [44]: > 100 µM (inactive)
GI50 [45]: > 100 µM (inactive)
GI50 [46]: > 100 µM (inactive)
GI50 [47]: > 100 µM (inactive)
GI50 [48]: > 100 µM (inactive)
GI50 [49]: > 100 µM (inactive)
GI50 [57]: > 100 µM (inactive)
GI50 [58]: > 100 µM (inactive)
GI50 [50]: > 100 µM (inactive)

O=c1c(Cc2ccc(Cl)cc2)nnc2sc(-c3ccc([N+](=O)[O-])cc3)nn12
GI50 [1]: 26.4 µM (inactive)
GI50 [2]: 20.7 µM (inactive)
GI50 [3]: 21.3 µM (inactive)
GI50 [5]: 42 µM (inactive)
GI50 [6]: 25.8 µM (inactive)
GI50 [7]: 36.9 µM (inactive)
GI50 [51]: 23.2 µM (inactive)
GI50 [8]: 23.2 µM (inactive)
GI50 [9]: > 100 µM (inactive)
GI50 [10]: 32.1 µM (inactive)
GI50 [11]: 29.8 µM (inactive)
GI50 [12]: 17.5 µM (inactive)
GI50 [13]: 16.1 µM (inactive)
GI50 [14]: 16.9 µM (inactive)
GI50 [16]: 24.3 µM (inactive)
GI50 [17]: 33.3 µM (inactive)
GI50 [18]: 20 µM (inactive)
GI50 [19]: 14.5 µM (inactive)
GI50 [20]: 20.7 µM (inactive)
GI50 [21]: 35 µM (inactive)
GI50 [22]: 15.6 µM (inactive)
GI50 [52]: 29.2 µM (inactive)
GI50 [23]: 49.1 µM (inactive)
GI50 [24]: 23.4 µM (inactive)
GI50 [25]: 48.1 µM (inactive)
GI50 [26]: 19.6 µM (inactive)
GI50 [27]: 32.1 µM (inactive)
GI50 [55]: 24.3 µM (inactive)
GI50 [29]: 31.1 µM (inactive)
GI50 [31]: 38.3 µM (inactive)
GI50 [32]: 17.9 µM (inactive)
GI50 [33]: 33.5 µM (inactive)
GI50 [34]: 20 µM (inactive)
GI50 [35]: 22.1 µM (inactive)
GI50 [36]: 15.6 µM (inactive)
GI50 [39]: 45.2 µM (inactive)
GI50 [40]: 14.6 µM
GI50 [41]: 25.9 µM (inactive)
GI50 [56]: 17.1 µM (inactive)
GI50 [42]: 31.1 µM (inactive)
GI50 [43]: 29 µM (inactive)
GI50 [44]: 19.8 µM (inactive)
GI50 [45]: > 100 µM (inactive)
GI50 [47]: 30.1 µM (inactive)
GI50 [59]: 14.2 µM (inactive)
GI50 [48]: 24.7 µM (inactive)
GI50 [49]: 21.3 µM (inactive)
GI50 [57]: 24.4 µM (inactive)
GI50 [58]: 21 µM (inactive)
GI50 [50]: 28.7 µM (inactive)
